Source: patent US6812028B1, “Embryogenesis and plant regeneration from microspores” (University of Guelph, priority 1999, dated 2004)

Tests used:
Assay type in all cases: cell-based
[1] = system: microspores of spring wheat genotypes Chris and Pavon 79; assay: AGP effect on embryo development from microspores, 0.8 ml drop on solid MMS4 with 3-4 ovaries; settings: for avg. # embryos: genotype Chris, 5 reps; for # embryos: genotype Pavon 79, 3 reps
Description: The effect of AGP on microspore embryogenesis in the presence of ovary co-culture was assessed using Chris and Pavon 79 wheat genotypes. Media comprising 5 mg/liter and 10 mg/liter of AGP were compared with a control medium, on microspore embryogenesis in the presence of ovary co-culture. The results in Table 9 indicate that overall response of Chris to AGP is higher than the response of Pavon 79.

[2] = system: wheat microspores cv Pavon 79; assay: Regeneration of plants from wheat microspores with AGP in induction media MMS4; settings: for # of plants Albino / # of plants Total / # of plants green / % of green plants / % of regen.: 250 embryos transferred to regeneration medium; for Total # of embryos: induction media MMS4, cv Pavon 79
Description: The effect of AGP on embryogenesis and plant regeneration was assessed in wheat microspores which were isolated from genotype Pavon 79 according to the method of the present invention. AGP levels of 0, 1, 5, and 10 mg/liter were tested. […] Additionally, the data illustrates the presence of ovaries in co-culture enhanced embryogenesis and plant regeneration. Only at 10 mg/liter of AGP was significant embryogenesis observed in the absence of ovary co-culture. FIG. 5(a) illustrates the comparative response of wheat microspores to the presence or absence of wheat ovaries and 0 or 10 mg/L AGP. FIG. 6 illustrates the good embryo structure developed in wheat after 4 weeks on medium with ovaries and AGP.

[3] = system: wheat (cv. Pavon 76) microspores; assay: Influence of regeneration media on plant development from wheat microspores; settings: AGP in regeneration media
Description: A comparison of regeneration media composition was conducted for wheat microspores induced on a medium in the presence and absence AGP. The regeneration medium was based on MMS4 medium having either 3% sucrose or 9% maltose as a sugar source, or in an AGP-containing medium based on MMS4 with 9% maltose. The microspores were either induced on a support, in this case, a Watman #2 filter disk, or were placed on a solid media in liquid drops. […] Sucrose within the regeneration media was effective in producing a high percentage of green plants, however maltose was also found to be effective. Without wishing to be bound by theory, this may be due to the quicker release of energy from sucrose that is required for regeneration.

Substance: arabinogalactan protein [AGP]
- avg. # embryos ([1]; AGP 5 mg/L): 5618
- # embryos ([1]; AGP 5 mg/L): 4155
- avg. # embryos ([1]; AGP 10 mg/L): 9836
- # embryos ([1]; AGP 10 mg/L): 4681
- # of plants Albino ([2]; AGP 1 mg/L with ovaries): 70
- # of plants Total ([2]; AGP 1 mg/L with ovaries): 118
- # of plants green ([2]; AGP 1 mg/L with ovaries): 48
- % of green plants ([2]; AGP 1 mg/L with ovaries): 41%
- % of regen. ([2]; AGP 1 mg/L with ovaries): 47%
- Total # of embryos ([2]; AGP 1 mg/L with ovaries): 2130
- # of plants Albino ([2]; AGP 5 mg/L with ovaries): 70
- # of plants Total ([2]; AGP 5 mg/L with ovaries): 120
- # of plants green ([2]; AGP 5 mg/L with ovaries): 50
- % of green plants ([2]; AGP 5 mg/L with ovaries): 42%
- % of regen. ([2]; AGP 5 mg/L with ovaries): 48%
- Total # of embryos ([2]; AGP 5 mg/L with ovaries): 3393
- # of plants Albino ([2]; AGP 10 mg/L with ovaries): 60
- # of plants Total ([2]; AGP 10 mg/L with ovaries): 189
- # of plants green ([2]; AGP 10 mg/L with ovaries): 129
- % of green plants ([2]; AGP 10 mg/L with ovaries): 68%
- % of regen. ([2]; AGP 10 mg/L with ovaries): 76%
- Total # of embryos ([2]; AGP 10 mg/L with ovaries): 4250
- embryogenesis, regeneration and % green plant production ([2]; addition of 10 mg/L of AGP, genotype Pavon 79): significant improvement
- effect of addition of AGP to the regeneration media on green plants [3]: reduced the number of green plants produced
